Source: US4981847A, “Tricyclic compounds” (Fujisawa Pharmaceutical Co., Ltd., priority 1988, dated 1991)
pIC50: −log10 of the molar value.

Key:
CCK receptor = CCK receptor antagonism in isolated fundic circular muscle from guinea pig stomach; type: cell-based; conditions: test compound 1×10^-6 M, CCK-8 3.2×10^-7 M, 37° C.
Experimental: (A) CCK receptor antagonism in isolated fundic circular muscle from guinea pig stomach
The strip of circular muscle suspended in 25 ml organ bath containing Krebs' bicarbonate solution (NaCl 118 mM, KCl 4.8 mM, KH2 PO4 1.2 mM, MgSO4 1.2 mM, CaCl2 2.5 mM, NaHCO3 25 mM, glucose 11 mM and bovine serum albumin 0.1%) maintained at 37° C. and gassed with 95% O2 and 5% CO2.
The strip was placed under an initial tension of 0.5 g and equilibrated for 60 minutes during which the bath volume was replaced every 15 minutes. Isometric contraction was measured using a force transducer. CCK-8 (3.2×10^-7 M) was added to the bathing solution and the contractile force was measured After washing out CCK-8, test compound A (1×10^-6 M) was added. 5 minutes later, CCK-8 was added and the contractile force was measured. CCK antagonism was calculated by comparing the contractile force induced by CCK in the absence or presence of test compound A.

[1] = biological target: T1, rat pancreatic CCK receptors (Rattus norvegicus, UniProt P30551); assay: Inhibition of binding of [125I] CCK-8 to rat pancreatic CCK receptors
T1 construct: rat pancreatic CCK receptors; from tissue; host or cells: rat pancreas
T1 sequence (P30551 1-444): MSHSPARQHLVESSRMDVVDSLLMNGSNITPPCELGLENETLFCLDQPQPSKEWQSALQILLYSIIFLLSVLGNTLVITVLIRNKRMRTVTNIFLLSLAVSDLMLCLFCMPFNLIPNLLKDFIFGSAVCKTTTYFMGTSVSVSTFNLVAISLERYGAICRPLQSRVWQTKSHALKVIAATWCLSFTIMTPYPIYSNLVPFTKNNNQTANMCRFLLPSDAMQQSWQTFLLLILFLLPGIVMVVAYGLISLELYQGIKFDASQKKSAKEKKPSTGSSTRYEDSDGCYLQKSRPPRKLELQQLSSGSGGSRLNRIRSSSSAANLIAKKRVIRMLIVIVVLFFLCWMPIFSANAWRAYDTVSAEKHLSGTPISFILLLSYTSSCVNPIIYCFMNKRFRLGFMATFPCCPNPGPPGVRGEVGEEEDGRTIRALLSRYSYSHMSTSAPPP
From the text: (B) Inhibition of binding of [^125 I] CCK-8 to rat pancreatic CCK receptors by test compound B (CCK antagonism).

[2] = biological target: T2, guinea pig cerebral cortical CCK receptors (Cavia porcellus, UniProt H0VZC5); assay: Inhibition of binding of [125I] CCK-8 to guinea pig cerebral cortical CCK receptors
T2 construct: guinea pig cerebral cortical CCK receptors; from tissue; host or cells: guinea pig cerebral cortex
T2 sequence (H0VZC5 entry or part of it): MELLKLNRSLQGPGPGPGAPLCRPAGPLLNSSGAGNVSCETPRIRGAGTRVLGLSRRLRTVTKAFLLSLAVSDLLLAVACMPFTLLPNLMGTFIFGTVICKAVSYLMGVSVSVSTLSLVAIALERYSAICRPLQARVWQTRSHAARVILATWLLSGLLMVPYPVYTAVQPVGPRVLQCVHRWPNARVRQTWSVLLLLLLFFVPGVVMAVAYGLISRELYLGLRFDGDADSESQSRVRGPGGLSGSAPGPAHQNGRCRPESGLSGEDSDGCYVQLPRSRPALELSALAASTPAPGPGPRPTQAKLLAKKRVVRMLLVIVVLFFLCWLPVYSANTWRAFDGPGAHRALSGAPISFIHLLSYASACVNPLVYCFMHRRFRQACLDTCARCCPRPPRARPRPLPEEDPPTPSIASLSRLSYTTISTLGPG
From the text: (C) Inhibition of binding of [^125 I] CCK-8 to guinea pig cerebral cortical CCK receptors by test compound B (CCK antagonism).

[3] = tested on: caerulein-induced pancreatitis; assay: Inhibitory effect on caerulein-induced pancreatitis in mice; type: in vivo; conditions: Mus musculus
From the text: (D) Inhibitory effect of test compound B on caerulein-induced pancreatitis in mice.

[4] = tested on: CCK-8-induced inhibition of gastric emptying; assay: Effect upon CCK-8-induced inhibition of gastric emptying in mice (CCK antagonism); type: in vivo; conditions: Mus musculus
From the text: Effect of test compound B upon CCK-8-induced inhibition of gastric emptying in mice (CCK antagonism).

SMILES	Inhibition (%) of CCK-8-induced contraction (CCK receptor)	pIC50 [1]	pIC50 [2]	ED50 [3]	ED50 [4]
O=C(NC1N=C(c2ccccc2F)c2cccc3c2N(CC3)C1=O)c1cc2ccccc2[nH]1 (racemic) [test compound A, (3RS)-1-(2-Fluorophenyl)-3,4,6,7-tetrahydro-3-(2-indolylcarbonylamino)-4-oxopyrrolo[3,2,1-jk][1,4]benzodiazepine]	90.4%	–	–	–	–
O=C(N[C@H]1N=C(c2ccccc2F)c2cccc3c2N(CC3)C1=O)c1cc2ccccc2[nH]1 [test compound B, (3S)-1-(2-Fluorophenyl)-3,4,6,7,-tetrahydro-3-(2-indolylcarbonylamino)-4-oxopyrrolo[3,2,1-jk][1,4]-benzodiazepine]	–	9.17	7.51	0.022 mg/kg	0.01 mg/kg
